Reference: patent US7985774B2, “Use of 3,5-seco-4-nor-cholestane derivatives for obtaining a cytoprotective drug” (Trophos, priority 2006, dated 2011)

How the values were obtained:
[1] = test system: rabbit ventricular cardiomyocytes; assay: Contractile dysfunction test induced by doxorubicin (sarcomer shortening); assay type: cell-based; details: after 4 hrs of exposure
Method: A stock solution of 3,5-seco-4-nor-cholestan-5-one oxime-3-ol at a concentration of 10 mM in 100% DMSO was used.
The final concentration in DMSO was the same for all the experimental points, independently of the molecular concentrations used.
3,5-seco-4-nor-cholestan-5-one oxime-3-ol was tested at concentrations of 0.1 and 0.3 μM, diluted in a Tyrode solution (composition in mmol/L: NaCl 135, KCl 5.4, NaH2PO4 0.33, CaCl2 1.2, MgCl2 1.0, Hepes 10; pH adjusted to 7.4 with NaOH).
Isolated ventricular cells are obtained from hearts of male New Zealand rabbits as described in A. d'Anglemont de Tassigny et al., Fund. Clin. Pharmacol, 18: 531-38, 2004. Briefly, the rabbits (2.0-2.5 kg) are anaesthetized with a pentobarbital solution (50 mg/kg) and they then receive heparin (200 IU/kg). The hearts are excised and immediately perfused, for 10-15 minutes by means of a Langendorff apparatus without recirculation with an oxygenated tyrode (calcium-free) isotonic solution (95%, 2-5% CO2) (in mM: NaCl 135, KCl 5.4, Na2PO4 0.33, MgCl2 1.0, HEPES 10, pH adjusted to 7.4 with 1N NaOH at 37° C., 280-300 mOsmol/kgH2O). […]
The myocytes were selected for the study according to the following criterion: a rod-like aspect with very apparent striations and no intracellular vacuola, no spontaneous contraction when they are stimulated with 1 mM Ca^2+, and with constant rest length and contraction amplitude. The length of the sarcomers was measured by means of a video image analysis program and the data were acquired at a rate of 240 samples/s. […]
(§1) Apoptosis is induced in isolated cardiomyocytes by 3-8 hour exposure to 1 μM of doxorubicin added into an isotonic solution containing (in mM) NaCl 110, KCl 5.4, Na2PO4 0.33, NaHCO3 25, glucose 5, MgCl2 0.8, CaCl2 1, pH adjusted to 7.4. […] The contractility of cardiomyocytes was measured every hour during the 8 hrs of exposure to doxorubicin. […]

[2] = test system: rabbit ventricular cardiomyocytes; assay: Annexin V marking of phosphatidylserine (apoptosis) after doxorubicin; assay type: cell-based; details: 3 hrs after doxorubicin, control 100%
Method: (§2) Isolated ventricular cells are obtained from hearts of male New Zealand rabbits as described in A. d'Anglemont de Tassigny et al., Fund. Clin. Pharmacol, 18: 531-38, 2004. Briefly, the rabbits (2.0-2.5 kg) are anaesthetized with a pentobarbital solution (50 mg/kg) and they then receive heparin (200 IU/kg). The hearts are excised and immediately perfused, for 10-15 minutes by means of a Langendorff apparatus without recirculation with an oxygenated tyrode (calcium-free) isotonic solution (95%, 2-5% CO2) (in mM: NaCl 135, KCl 5.4, Na2PO4 0.33, MgCl2 1.0, HEPES 10, pH adjusted to 7.4 with 1N NaOH at 37° C., 280-300 mOsmol/kgH2O). Next, all the hearts are perfused for 3 minutes in the “recirculation” mode with the same calcium-free Tyrode solution (coronary flow rate, 10-15 mL/min) added with 1 mg/mL of type II collagenase and 0.28 mg/mL of XIV type protease. Finally, all the hearts are perfused in a mode without any recirculation with the same solution of Tyrode supplemented with 0.3 mM of CaCl2 for 10 min. The left ventricle is removed and cut into small pieces; cell dissociation is achieved by mild mechanical stirring. Extracellular calcium is added by increments every 15 minutes, in order to reach a physiological concentration of 1.0 mM. […]
Annexin V marking of phosphatidylserine was used as a quantitative method for measuring apoptosis by using the MiniMacs cell isolation kit (Miltenyi Biotec, Bergisch, Gladbach, Germany). […] The column is removed from the magnetic field, the cells exposing phosphatidylserine, magnetically retained, are eluted as a positive fraction and counted with a Mallassez cell counter. […]
as §1

[3] = test system: caspase-3; assay: Caspase-3 activity (apoptosis) after doxorubicin; assay type: cell-based, rabbit; details: 8 hrs after exposure, control 19±9
Method: as §2
Caspase-3 activity is used as a quantitative method for measuring apoptosis. […] The fluorogenic substrate for measuring caspase-3 activity (DEVD) is marked with the fluorochrome, 7-amino-4-methyl coumarine (AMC), which produces […] fluorescence detectable in UV light at 360/460 nm for 210 min. […]
as §1

[4] = doxorubicin 1 μM + compound 0.1 μM
[5] = doxorubicin 1 μM + compound 0.3 μM

SMILES: CC(C)CCC[C@@H](C)[C@H]1CC[C@H]2[C@@H]3CC/C(=N\O)[C@](C)(CCCO)[C@H]3CC[C@]12C [3,5-seco-4-nor-cholestan-5-one oxime-3-ol]
- shortening of the peak relatively to the base line ([1]; doxorubicin 1 μM + compound 0.1 μM (15 min pre-treatment)): 18.9±5.4%
- shortening of the peak relatively to the base line ([1]; doxorubicin 1 μM + compound 0.3 μM (15 min pre-treatment)): −8.1±9.6%
- Apoptosis as % of change in annexin V marking [2, 4]: 116.3%
- Apoptosis as % of change in annexin V marking [2, 5]: 137.3%
- caspase-3 activity [3, 4]: 27 ± 20 fmol/min
- caspase-3 activity [3, 5]: 15 ± 7 fmol/min
